Values of other authors in patent publication US5900412A, “Percutaneous/transdermal delivery of ASA and antithrombotic therapies based thereon” (Luitpold Pharma GmbH, priority 1996, dated 1999).

SMILES: CC(=O)Oc1ccccc1C(=O)O [ASA, acetylsalicylic acid]
- acetylation and inactivation of cyclooxygenase (in words) (cyclooxygenase): irreversible acetylation, and consequently prolonged inactivation, of cyclooxygenase
- duration of inhibition of thromboxane synthesis (life of the thrombocytes) (cyclooxygenase; blood platelets): 1 month
- absolute bio-availability of ASA (following peroral administration): 50%-70
- metabolism of ASA to SA (in words) (gastrointestinal fluids, absorption in stomach and intestine, blood plasma): rapidly metabolized to its principal metabolite SA
